# Data published in patent US20230089557A1, “METHODS OF TREATING DLBCL USING BTK INHIBITORS AND COMBINATIONS THEREOF” (BEIGENE SWITZERLAND GMBH, priority 2020, published 2023).
# Test system: R/R non-GCB DLBCL
# Experiment: Four Compound 1 studies pooled (monotherapy and combination), response by BCL2/MYC expression
# Assay type: in vivo, human
# Details: for BOR / BOR (responders/patients) / OS / PFS: mono- and combination therapies pooled; for overall survival / progression-free survival / ORR / ORR (responders/patients): two monotherapies and two combination therapies
# Description: A total of 121 patients with R/R non-GCB DLBCL were recruited in four Compound 1 treatment studies that were conducted at a similar time period. Two of the four studies were Compound 1 monotherapy (n=79) and two were Compound 1 combined with an anti-CD20 antibody therapy (n=42). Similar inclusion and exclusion criteria and response evaluation criteria were used across all studies. Fifty-six non-GCB patients were further subtyped by gene expression profiling (GEP) using the HTG EdgeSeq DLBCL Cell of Origin Assay. The expression of approximately 90 lymphoma-associated genes from the HTG GEP assay were analyzed by R package limma for correlation with response to Compound 1 treatment. Seventy-seven patient samples were tested by next-generation sequencing (NGS) with a panel of genes. Chi-square test was used to evaluate the correlation between mutations and the objective response rate (ORR).
# Monotherapy schedule 1: Compound 1 was administered orally every day at 160 mg twice daily (BID) in 28-day cycles in patients with R/R non-GCB DLBCL
# Monotherapy schedule 2: Compound 1 was administered orally every day in each cycle at 160 mg BID in 28-day cycles in patients with R/R non-GCB DLBCL.
# Combination therapy schedule 1: Compound 1 was administered orally every day in each cycle at 160 mg BID in 28-day cycles, in combination with obinutuzumab, in patients with R/R non-GCB DLBCL. Obinutuzumab was administered for up to 6 cycles consistent with the U.S. label regimen (100 mg at Day 1 Cycle 1, 1000 mg at Day 8 and Day 15, 900 mg at Day 2 Cycle 1 followed by 1000 mg on day one of cycles 2-6).
# Combination therapy schedule 2: Compound 1 was administrated orally every day in each cycle at 160 mg BID in 28-day cycles, in combination with rituximab, in patients with R/R non-GCB DLBCL. And, rituximab was administered at 375 mg/m2 intravenously on Cycle 1 Days 1, 8, 15, 22, and on Day 1 of Cycles 4, 6, 8, 10. Compound 1 was administered at least 30 minutes prior to the initiation of the rituximab infusion.
# A total of 121 patients with non-GCB DLBCL were included for response evaluation. 79 patients were subjected to Compound 1 monotherapies (Monotherapy Schedule 1 or 2), and 42 patients were subjected to Compound 1 plus anti-CD20 antibody Combination therapy (Combination therapy schedule 1 or 2).
# 56 non-GCB patients were further subtyped by gene expression profiling (GEP) using the HTG EdgeSeq DLBCL Cell of Origin Assay. The expression of approximately 90 lymphoma-associated genes from the HTG GEP assay were analyzed by R package limma for correlation with response to zanubrutinib treatment.
# [1] = MYC and BCL2 double expressor (DE) patients
structure (smiles),measurement,setting,value
"C=CC(=O)N1CCC([C@@H]2CCNc3c(C(N)=O)c(-c4ccc(Oc5ccccc5)cc4)nn32)CC1 [Compound 1, (S)-7-(1-acryloylpiperidin-4-yl)-2-(4-phenoxyphenyl)-4,5,6,7-tetra-hydropyrazolo[1,5-a]pyrimidine-3-carboxamide]",BOR,BCL2-high patients,57%
same,BOR (responders/patients),BCL2-high patients,16/28
same,OS,BCL2-high patients,10 m
same,PFS,BCL2-high patients,5.3 m
same,BOR,BCL2-low patients,21%
same,BOR (responders/patients),BCL2-low patients,6/28
same,OS,BCL2-low patients,6 m
same,PFS,BCL2-low patients,2.8 m
same,overall survival,DE patients,10 months
same,progression-free survival,DE patients,5.4 months
same,ORR,[1],61%
same,ORR (responders/patients),[1],11/18
same,BOR,MYC-high patients,46%
same,BOR (responders/patients),MYC-high patients,13/28
same,OS,MYC-high patients,10 m
same,PFS,MYC-high patients,5.4 m
same,BOR,MYC-low patients,32%
same,BOR (responders/patients),MYC-low patients,9/28
same,OS,MYC-low patients,7 m
same,PFS,MYC-low patients,2.9 m
same,ORR,non-DE patients,29%
same,ORR (responders/patients),non-DE patients,11/38
same,overall survival,non-DE patients,7 months
same,progression-free survival,non-DE patients,3.6 months
